Patent US4107299A, “Cardioactive 12-epi-digoxin and derivatives thereof” (Boehringer Mannheim GmbH, priority 1975, dated 1978)
Read-outs that look alike come from different tables or passages of the source.

Tested on: insulated, electrically stimulated left atrium of the guinea pig
Assay: Therapeutic effect and therapeutic spectrum at the insulated, electrically stimulated left atrium of the guinea pig
Format: cell-based
Conditions: mean and average deviation; for EC50 / Emax: Cavia porcellus; for Emax: in percentage of the decrease of the amplitude by reduction of the calcium content (1.8 to 0.45 mVal), read-out: Contraction Amplitude maximum increase (%); for Contraction Amplitude maximum increase: maximum contraction amplitude with increasing glycoside concentrations, calcium reduced from 1.8 to 0.45 mVal, 31° C, 3 Hz; for therapeutic spectrum: quotient EC50 decrease/EC50 increase
Experimental: Comparison of the therapeutic spectrum of various cardioactive glycosides was undertaken, employing electrical stimulation of the insulated left atrium of guinea pigs. Specifically, the left atrium was suspended in Tyrode solution at 31° C and electrically stimulated by a frequency of 3 Hz with rectangular impulses of 2 m sec. duration and optimum tension. The maximum contraction strength was registered semi-isometrically.
When a constant contraction amplitude has set in, the calcium concentration was reduced from 1.8 to 0.45 mVal. The initial tension was adjusted to 1 g at the start of the test; if necessary, it was adjusted after the readjustment to a solution poor in calcium, however, no longer changed during the further course of the experiment.
Of the glycosides to be tested, stock solutions were prepared in dimethyl acetamide and, for the test with NaCl-solution so diluted that the stated end concentrations were obtained with the addition of 0.1 ml to a bath volume of 80 ml. It was determined in preliminary tests that up to 0.4 ml undiluted dimethyl acetamide were tolerated without influencing the contractility.
If, after reduction of the calcium concnetration, a constant degree of contraction was again obtained after approximately 10 minutes, concentrations of the glycoside to be tested were added in the ratio 1 + 1 + 2 + 4, etc. The period between the individual additions was 15 minutes.
Prior to the change-over to a calcium-poor Tyrode solution and prior to each addition of glycoside, as well as 15 minutes after the last dose, the prestress was measured in grams and the contraction amplitude in mg. The difference of the amplitude was calculated from the test values for the contraction amplitude after reduction of the calcium content. The difference between the contraction amplitude before and after the change-over to a calcium-poor solution was put as equal to 100% amplitude reduction.
It was determined for each individual atrium when, with administration of increasing concentrations of the glycosides, there was obtained
the maximum contraction amplitude ("maximum increase");
increase of the amplitude to 50% of the difference between normal and reduced calcium content ("EC50 increase");
decrease of the contraction amplitude to the same height ("EC50 decrease");
the therapeutic spectrum quotient of the two EC50, i.e. EC50 decrease/EC50 increase.
With these evaluation processes, there are obtained numerical data for the concentration and the period during which the corresponding effect was observed. In order to obtain a uniform basis for the evaluation, differences in the time of the appearance were converted into concentrations according to the following method:
The logarithm of the concentration was graphically plotted against the time in such manner that the lowest concentration was put at 15 minutes, the next higher one at 30 minutes, etc. The evaluation of the tests yielded the time after the start of the test at which the respective effect had appeared. The concentration pertaining to it was read from the diagram.
This procedure is based on the assumption that the concentration increases exponentially at the place of the effect. De facto this assumption is more correct than a regular increase in concentration in stages in the bath liquid since there is a substantial time lapse between the increase of the concentration in the bath and in the tissue.
In addition, the maximum degree of […] was measured in all tests under the influence of the glycosides and in percentage of the decrease of the amplitude by reduction of the calcium content.

[1] = decrease of the contraction amplitude to the same height (50%) at higher concentrations, read-out: EC50 decrease
[2] = increase of the amplitude to 50% of the difference between normal and reduced calcium content, read-out: EC50 increase

Structure (SMILES) | EC50 [1] | Emax | EC50 [2] | Contraction Amplitude maximum increase | therapeutic spectrum
CO[C@H]1[C@@H](O)C[C@H](O[C@H]2[C@@H](O)C[C@H](O[C@H]3[C@@H](O)C[C@H](O[C@H]4CC[C@@]5(C)[C@H](CC[C@@H]6[C@@H]5C[C@@H](O)[C@]5(C)[C@@H](C7=CC(=O)OC7)CC[C@]65O)C4)O[C@@H]3C)O[C@@H]2C)O[C@@H]1C [methyldigoxina., β-methyldigoxin, reference compound] | 0.66 ± 0.04 µM | 75 ± 5% | 0.23 ± 0.03 µM | 292 ± 56 mg | 3.06±0.36
CC(=O)O[C@H]1C[C@H](O[C@H]2[C@@H](O)C[C@H](O[C@H]3[C@@H](O)C[C@H](O[C@H]4CC[C@@]5(C)[C@H](CC[C@@H]6[C@@H]5C[C@H](O)[C@]5(C)[C@@H](C7=CC(=O)OC7)CC[C@]65O)C4)O[C@@H]3C)O[C@@H]2C)O[C@H](C)[C@H]1O [Example 5, α-Acetyl-12-epi-digoxin] | 2.78 ± 0.28 µM | – | 0.848 ± 0.09 µM | – | 3.40±0.40
CO[C@H]1[C@@H](O)C[C@H](O[C@H]2[C@@H](O)C[C@H](O[C@H]3[C@@H](O)C[C@H](O[C@H]4CC[C@@]5(C)[C@H](CC[C@@H]6[C@@H]5C[C@H](O)[C@]5(C)[C@@H](C7=C(C)C(=O)OC7)CC[C@]65O)C4)O[C@@H]3C)O[C@@H]2C)O[C@@H]1C [Example 12, 22-Methyl-12-epi-β-methyldigoxin] | 17 ± 1.7 µM | – | 3.55 ± 0.41 µM | – | 5.15±0.59
CC(=O)O[C@H]1C[C@H]2[C@@H](CC[C@@H]3C[C@@H](O[C@H]4C[C@H](O)[C@H](O[C@H]5C[C@H](O)[C@H](O[C@H]6C[C@H](O)[C@H](O)[C@@H](C)O6)[C@@H](C)O5)[C@@H](C)O4)CC[C@@]32C)[C@@]2(O)CC[C@H](C3=CC(=O)OC3)[C@@]12C [Example 7, 12-Acetyl-12-epi-digoxin] | 13.8 ± 0.81 µM | – | 2.86 ± 0.31 µM | – | 5.15±0.71
C[C@H]1O[C@@H](O[C@H]2[C@@H](O)C[C@H](O[C@H]3[C@@H](O)C[C@H](O[C@H]4CC[C@@]5(C)[C@H](CC[C@@H]6[C@@H]5C[C@H](O)[C@]5(C)[C@@H](C7=CC(=O)OC7)CC[C@]65O)C4)O[C@@H]3C)O[C@@H]2C)C[C@H](O)[C@@H]1O [Example 1, 12-Epi-digoxin] | 2.48 ± 0.3 µM | 92 ± 6.5% | 0.557 ± 0.07 µM | 746 ± 56 mg | 4.49±0.35
C#CCC1=C([C@H]2CC[C@]3(O)[C@@H]4CC[C@@H]5C[C@@H](O[C@H]6C[C@H](O)[C@H](O[C@H]7C[C@H](O)[C@H](O[C@H]8C[C@H](O)[C@H](OC)[C@@H](C)O8)[C@@H](C)O7)[C@@H](C)O6)CC[C@]5(C)[C@H]4C[C@H](O)[C@]23C)COC1=O [Example 26, 22-Propargyl-12-epi-β-methyldigoxin] | 14.6 ± 1.4 µM | – | 4.46 ± 0.75 µM | – | 3.94±1.0
CO[C@H]1[C@@H](O)C[C@H](O[C@H]2[C@@H](O)C[C@H](O[C@H]3[C@@H](O)C[C@H](O[C@H]4CC[C@@]5(C)[C@H](CC[C@@H]6[C@@H]5C[C@H](O)[C@]5(C)[C@@H](C7=CC(=O)OC7)CC[C@]65O)C4)O[C@@H]3C)O[C@@H]2C)O[C@@H]1C [Example 2, 12-Epi-β-methyldigoxin] | 2.78 ± 0.4 µM | 96 ± 6.3% | 0.315 ± 0.02 µM | 666 ± 78 mg | 8.86±1.17
CO[C@H]1[C@@H](O)C[C@H](O[C@H]2[C@@H](O)C[C@H](O[C@H]3[C@@H](O)C[C@H](O[C@H]4CC[C@@]5(C)[C@H](CC[C@@H]6[C@@H]5C[C@H](OC(C)=O)[C@]5(C)[C@@H](C7=CC(=O)OC7)CC[C@]65O)C4)O[C@@H]3C)O[C@@H]2C)O[C@@H]1C [Example 18, 12-Acetyl-12-epi-β-methyldigoxin] | 25.6 ± 2.9 µM | – | 4.71 ± 0.81 µM | – | 6.50±1.5
CO[C@H]1[C@@H](O)C[C@H](O[C@H]2[C@@H](O)C[C@H](O[C@H]3[C@@H](O)C[C@H](O[C@H]4CC[C@@]5(C)[C@H](CC[C@@H]6[C@@H]5C[C@H](O)[C@]5(C)[C@@H](C7=C(C(C)C)C(=O)OC7)CC[C@]65O)C4)O[C@@H]3C)O[C@@H]2C)O[C@@H]1C [Example 14, 22-Isopropyl-12-epi-β-methyldigoxin] | 61.9 ± 5.2 µM | – | 21.6 ± 1.9 µM | – | 3.08±0.45
CCC1=C([C@H]2CC[C@]3(O)[C@@H]4CC[C@@H]5C[C@@H](O[C@H]6C[C@H](O)[C@H](O[C@H]7C[C@H](O)[C@H](O[C@H]8C[C@H](O)[C@H](OC)[C@@H](C)O8)[C@@H](C)O7)[C@@H](C)O6)CC[C@]5(C)[C@H]4C[C@H](O)[C@]23C)COC1=O [Example 13, 22-Ethyl-12-epi-β-methyldigoxin] | 40.5 ± 2.6 µM | – | 5.9 ± 0.48 µM | – | 7.10±0.74
CC(=O)O[C@H]1[C@@H](O)C[C@H](O[C@H]2[C@@H](O)C[C@H](O[C@H]3[C@@H](O)C[C@H](O[C@H]4CC[C@@]5(C)[C@H](CC[C@@H]6[C@@H]5C[C@H](O)[C@]5(C)[C@@H](C7=CC(=O)OC7)CC[C@]65O)C4)O[C@@H]3C)O[C@@H]2C)O[C@@H]1C [Example 6, β-Acetyl-12-epi-digoxin] | 3.76 ± 0.25 µM | – | 0.921 ± 0.07 µM | – | 4.25±0.51
CCC1=C([C@H]2CC[C@]3(O)[C@@H]4CC[C@@H]5C[C@@H](O[C@H]6C[C@H](O)[C@H](O[C@H]7C[C@H](O)[C@H](O[C@H]8C[C@H](O)[C@H](O)[C@@H](C)O8)[C@@H](C)O7)[C@@H](C)O6)CC[C@]5(C)[C@H]4C[C@H](O)[C@]23C)COC1=O [Example 9, 22-Ethyl-12-epi-digoxin] | 39.3 ± 3 µM | – | 6.63 ± 0.75 µM | – | 6.39±0.96
